Literature values, collected in patent publication US12285521B2, “Pharmaceutical formulation” (Klaria Pharma Holding AB, priority 2016, dated 2025).

Tests used:
[1] = test system: migraine; settings: subcutaneous administration, 6 mg sumatriptan
[2] = test system: migraine; settings: to be achieved within 60 minutes after dosing

CNS(=O)(=O)Cc1ccc2[nH]cc(CCN(C)C)c2c1 [sumatriptan]
time of maximum plasma concentration (after intranasal administration): 1 to 1.5 h
mean intranasal bioavailability (intranasal, after a 20 mg dose): 15.8%
mean maximum concentration (intranasal, after a 20 mg dose): 12.9 ng/mL
people with pain reduced from moderate or severe to none within two hours [1]: ~60%
plasma level for the most reliable migraine-relieving effect [2]: over 9.44 ng/mL
